# According to patent US20230340037A1, “INHIBITORS OF ?-SYNUCLEIN AGGREGATION AND USES THEREOF” (U[…] DE BARCELONA, priority 2020, published 2023):
# Assays:
# [1] = target: T1, toxic a-synuclein oligomer (type B*) (Homo sapiens, UniProt P37840, N122C); assay: dcFCCS and smFRET analysis of binding to toxic a-synuclein oligomer; conditions: peptide labeled with Atto647N; cross-correlation signal and smFRET events
# T1 construct: made in house; host or cells: Escherichia coli BL21 (DE3), pET21a
# Protocol: (§1) The relative binding affinities of inhibitors of the present disclosure to toxic a-synuclein oligomers, a-synuclein fibrils, and monomeric a-synuclein can be determined via […] (dcFCCS) as follows.
# (§2) Dual-Colour FCCS (dcFCCS) experiments are performed on a Time-Resolved Fluorescence confocal microscope (e.g., MT200 from PicoQuant, Berlin, Germany) with a Time-Correlated Single Photon Counting (TCSPC) unit. Pulsed Interleaved Excitation (PIE) is used at laser powers of 6 μW (481 nm) and 5 μW (637 nm) measured after the dichroic mirror for optimal count rates while avoiding photobleaching and saturation. The coverslip is placed directly on the immersion water on top of the objective (e.g., Super Apochromat 60×NA 1.2 objective with a correction collar). The dichroic 488/640 nm is chosen as the main beam splitter. A 50 μm pinole is used. The emission light beam is split by a 50/50 beamsplitter into 2 detection paths. […] The software is also used for fitting the FCS and FCCS data as well as for a PIE-FRET analysis of the data from which the FRET efficiency (E) is calculated.
# (§3) The binding of inhibitors of the present disclosure to toxic a-synuclein oligomers, a-synuclein fibrils, and monomeric a-synuclein can be determined via Förster resonance energy transfer (smFRET) as follows. […]
# a-synuclein fibrils = target: T2, a-synuclein fibrils (Homo sapiens, UniProt P37840, N122C); assay: dcFCCS and smFRET analysis of binding to a-synuclein fibrils; conditions: peptide labeled with Atto647N; cross-correlation signal and smFRET events
# T2 construct: made in house; host or cells: Escherichia coli BL21 (DE3), pET21a
# Protocol: as §1, §2, §3
# a-synuclein monomer = target: T3, a-synuclein monomer (Homo sapiens, UniProt P37840, N122C); assay: dcFCCS and smFRET analysis of binding to a-synuclein monomer; conditions: peptide labeled with Atto647N
# T3 construct: made in house; host or cells: Escherichia coli BL21 (DE3), pET21a
# Protocol: as §1, §2, §3
# [2] = target: T4, non-toxic a-synuclein oligomer (type A*) (Homo sapiens, UniProt P37840, N122C); assay: dcFCCS and smFRET analysis of binding to non-toxic a-synuclein oligomer; conditions: peptide labeled with Atto647N
# T4 construct: made in house; host or cells: Escherichia coli BL21 (DE3), pET21a
# a-synuclein = target: T5, a-synuclein (Homo sapiens, UniProt P37840); assay: a-synuclein aggregation kinetics assay (thioflavin-T); format: biochemical; conditions: 70 μM a-synuclein, Th-T, equimolar and substoichiometric peptide concentrations, 32 h
# T5 construct: made in house; host or cells: Escherichia coli BL21 (DE3), pET21a
# Protocol: a-synuclein aggregation can be monitored as described in Pujols et al., 2018. Specifically, inhibition of in vitro a-synuclein aggregation at equimolar concentrations of a-synuclein and the tested inhibitor can be determined as follows:
# A 96 well microtiter plate is prepared to contain, in each well, a Teflon polyball (3.175 mm in diameter, e.g., from Polysciences Europe GmbH, Eppelheim, Germany) and 150 μl of PBS containing 70 μM a-synuclein (prepared from diluting the 0.22 μm-filtered 210 μM a-synuclein solution described in example 1), 40 μM thioflavin-T and 70 μM of the tested inhibitor. 150 μl/well of PBS containing 70 μM a-synuclein and 40 μM thioflavin-T is used as a control. […] Every two hours, the fluorescence intensity is measured (e.g. using a Victor3.0 Multilabel Reader, PerkinElmer Waltham, MA, USA) by exciting the mixtures at 430-450 nm and measuring the emission intensity at 480-510 nm. […]
# Parallel wells (e.g. triplicates) are prepared for each tested inhibitor and the control. For the measurement of each time interval, the measured fluorescence intensity of the respective parallel wells is averaged and then normalized to the maximum fluorescence of the control (a-synuclein without inhibitor) and fitted to the Finke-Watzky curve, accounting for fibril elongation and secondary nucleation. […]
# [3] = tested on: SH-SY5Y neuroblastoma cells; assay: Toxic a-synuclein oligomer induced increase of intracellular reactive oxygen species; format: cell-based, human
# Protocol: A stock solution of 80 μM toxic a-synuclein oligomer (prepared as described in example 3) and a stock solution of 80 μM toxic a-synuclein oligomer and 80 μM of the tested inhibitor are prepared in PBS and incubated for 15 min at 20° C. before being added to cell-containing wells as described below.
# Human SH-SY5Y neuroblastoma cells (ATCC, #CRL-2266) cultured in growth medium (Eagle's Minimum Essential Medium (EMEM) supplemented with 10% […] (FBS)) are seeded onto a glass slide mounted with 8 removable wells (e.g., Nunc Lab-Tek II Chamber Slide System, #154941) with 0.5 mL cells/well at 0.5×10^6 cells/mL in growth medium for 24 h at 37° C. and 5% C02. […]
# Then, a fluorogenic reagent for oxidative stress detection in live cells (e.g., a CellRox® reagent from Invitrogen, Carlsbad, USA, such as CellRox® Green) is added (final concentration of CellRox® Green 5 μM). […] The intracellular fluorescence of the treated SH-SY5Y cells is then analyzed with a confocal microscope (e.g. a Leica TCS SP5, Leica Microsystems, Wetzlar, Germany, with a HCX PL APO 63×1.4 oil immersion objective) equipped with a camera, using wave lengths for excitation and detection which are suitable for the used oxidative stress detection agent (for CellRox® Green: excitation at 488 nm and detection at 515-560 nm). […] ROS fluorescence are calculated from mean of 100 cells.
compound,measurement,setting,value
LL-37,interaction with toxic a-synuclein oligomer,[1],interact with
same,interaction with a-synuclein fibrils,a-synuclein fibrils,interact with
same,interaction with a-synuclein monomer,a-synuclein monomer,not
same,interaction with non-toxic a-synuclein oligomer,[2],not
same,inhibition of a-synuclein aggregation,a-synuclein,inhibit a-synuclein aggregation
same,generation of reactive oxygen species,"[3]; coincubated with a-synuclein toxic oligomers, 10 μM",reduce the generation of reactive oxygen species
CSCC[C@H](N)C(=O)N[C@@H](CCC(=O)O)C(=O)N[C@@H](Cc1ccccc1)C(=O)N[C@H](C(=O)N[C@@H](C)C(=O)N[C@@H](CCCCN)C(=O)N[C@@H](CC(C)C)C(=O)N[C@@H](Cc1ccccc1)C(=O)N[C@@H](CCCCN)C(=O)N[C@@H](Cc1ccccc1)C(=O)N[C@@H](Cc1ccccc1)C(=O)N[C@@H](CCCCN)C(=O)N[C@@H](CC(=O)O)C(=O)N[C@@H](CC(C)C)C(=O)N[C@@H](CC(C)C)C(=O)NCC(=O)N[C@@H](CCCCN)C(=O)N[C@@H](Cc1ccccc1)C(=O)N[C@@H](CC(C)C)C(=O)NCC(=O)N[C@@H](CC(N)=O)C(=O)N[C@@H](CC(N)=O)C(=O)O)C(C)C [PSMα3],cytotoxicity of toxic aS oligomers,[3]; neuroblastoma cell culture,reduced cytotoxicity
